Assays:
MV-4-11 cells = experiment: Oncology cell growth assay MV-4-11 (CellTiter Glo); assay type: cell-based; conditions: Homo sapiens, MV4-11, 72 h; MV-4-11, 3d growth; read-out: Cell activity (IC50 μM) MV-4-11 3d-Growth
How it was run: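 Growth read by CellTiter Glo luminescence after 72 h compound treatment of MLL-AF4-bearing MV-4-11 cells (3000/well). Titration: 8 points, 1:3 steps, maximum 10 μM, 0.2% DMSO final. Data normalized to DMSO wells, four-parameter fit gives pIC50.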

BRD4-BD12 (1-477) = BRD4-BD12 (1-477) (Homo sapiens (Human), UniProt O60885); experiment: Alphascreen binding assay BRD4-BD12; conditions: BRD4(1 2) H4; read-out: Biochemical activity (IC50 μM) BRD4(1 2) H4
Description: Binding of compounds of formula (I) with bromodomain 2, 3 4 was assessed using Alphascreen binding assay. The inhibition of the interaction between bromodomain and its acetylated target protein (Filippakopoulos P et al. 2012) was measured quantitatively using recombinant BRD proteins, an acetylated Histone 4 peptide and AlphaScreen™ technology. In absence of inhibition the BRD protein bound to AlphaScreen™ nickel chelate acceptor beads can interact with the acetylated Histone 4 peptide which is immobilized by the AlphaScreen™ Streptavidin coated beads. This interaction brings donor and acceptor beads in proximity. The close proximity allows the singlet oxygen produced by laser excitation of the donor beads to reach the acceptor beads and generate a luminescence signal.
Recombinant human bromodomains containing the N-terminal bromodomain (BRD2-BD1 (71-194), BRD3-BD1 (24-144) and BRD4-BD1 (44-164)) or dual bromodomains (BRD4-BD12 (1-477), BRD4-BD12 (1-472)) were prepared and purified as described in protein expression and purification session. The peptide is human Histone H41-21K5AcK8AcK12AcK16Ac-Biotin (Anaspec CA, USA).
Protocol for BRD2, BRD3 and BRD4 assay: All components are prepared in buffer composed of 50 mM HEPES pH 7.5, 100 mM NaCl, 0.01% bovine serum albumin (“BSA”), 0.01% Triton X-100, 2 mM dithiothreitol (“DTT”). 7 μL of Bromodomain protein and 7 μL of peptide are added to wells containing 1 μL of various concentrations of test compounds of formula (I) or DMSO vehicle in an Alphaplate (PerkinElmer GA, USA) and incubated for 1 hour at room temperature. 4 μL donor and acceptor bead mixture is then added with final concentrations of 7.5 μg/ml. 30 minutes after bead addition, Alpha signal is read on the Envision spectrometer (λEx 680 nm, λEm 520-620 nm). Final concentrations of bromodomain proteins and peptide are as shown below.
All data was normalized to the mean of 16 high and 16 low control wells on each plate. A four parameter curve fit of the following formula was then applied: Y=a+(b−a)/(1+(x/c)^d) Where ‘a’ is the minimum, ‘b’ is the maximum, ‘c’ is the pIC50 and ‘d’ is the Hill slope. Protein Expression and Purification
Recombinant human bromodomains containing the N-terminal bromodomain (BRD2-BD1 (71-194), BRD3-BD1 (24-144) and BRD4-BD1 (44-164)) or dual bromodomains (BRD4-BD12 (1-477), BRD4-BD12 (1-472)) were expressed in E. coli cells (in a modified pET vector) with an N-terminal six-His tag and purified using a combination of both IMAC (Ni-affinity) and size exclusion chromatography steps.
Recombinant BRD proteins were expressed using the E. coli strain BL21-CodonPlus (DE3) (Agilent Technologies CA, USA). Cells were grown in Terrific Broth (TB) media to an OD600 of 1.2 at 37° C. at which temperature was reduced to 25° C., protein was induced with 1.0 mM ispropyl-β-D-thiogalactopyranoside (“IPTG”) for 12-18 hours and harvested by centrifugation at 8000×g for 20 minutes. Cells were re-suspended in 0.1M K2PO4 pH 8.0, 250 mM NaCl, 10% Glycerol, 0.75% NP-40, 25 mM Imidazole, 5 mM beta-mercaptoethanol (“BME”) with 0.2 mg/ml Lysosyme, 2.0 mM phenylmethanesulfonyl fluoride (“PMSF”), 25 μg/ml DNAse I, incubated on ice for 30 minutes and lyzed with a cell disruptor (MicroFluidics MA, USA). The lysate was clarified by centrifugation at 20,000×g for 2 hours. The protein was captured with Ni-NTA resin (Life Technologies, USA). Contaminating proteins were washed off with 25 mM Tris-HCl pH 8.3, 250 mM NaCl, 12% Glycerol and 50 mM Imidazole. Following 3× wash steps, protein was eluted step wise using a 50 mM HEPES pH 7.5, 500 mM NaCl and 400 mM Imidazole. The protein was further purified using Gel Filtration column 26/600 Superdex 200 (GE Biosciences NJ, USA) in 50 mM HEPES pH 7.5, 250 mM NaCl. The protein was aliquoted and flash-frozen in liquid Nitrogen.

Compound | IC50 (MV-4-11 cells) [µM] | IC50 (BRD4-BD12 (1-477)) [µM]
Cc1noc(C)c1-c1ccc2c(-c3ccc(C(=O)O)cc3)cn([C@@H](C)c3ccccn3)c2c1 [P-1030, 4-[6-(3,5-dimethylisoxazol-4-yl)-1-[(1S)-1-(2-pyridyl)ethyl]indol-3-yl]benzoic acid] | < 1 | < 1
Cc1noc(C)c1-c1cnc2c(-c3ccc(C4(C(=O)O)CC4)cc3)cn(C(c3ccccn3)C3CCCC3)c2c1 (stereo not drawn) [P-1049, 1-[4-[1-[cyclopentyl(2-pyridyl)methyl]-6-(3,5-dimethylisoxazol-4-yl)pyrrolo[3,2-b]pyridin-3-yl]phenyl]cyclopropanecarboxylic acid] | < 1 | < 1
COC(=O)c1ccc(-c2cn(CC3CCCCC3)c3cc(-c4c(C)noc4C)cnc23)cc1OC [P-0904, methyl 4-[1-(cyclohexylmethyl)-6-(3,5-dimethylisoxazol-4-yl)pyrrolo[3,2-b]pyridin-3-yl]-2-methoxy-benzoate] | < 1 | < 1
Cc1noc(C)c1-c1cnc2c(-c3ccc(C4(C(=O)O)CC4)cc3)cn([C@H](c3ccccn3)C3CC3)c2c1 [P-1032, 1-[4-[1-[(S)-cyclopropyl(2-pyridyl)methyl]-6-(3,5-dimethylisoxazol-4-yl)pyrrolo[3,2-b]pyridin-3-yl]phenyl]cyclopropanecarboxylic acid] | < 1 | < 1
Cc1noc(C)c1-c1cnc2c(c1)c(P(=O)(c1ccccc1)c1ccccc1)cn2-c1ccc(C(=O)O)cc1 [P-0951, 4-[5-(3,5-dimethylisoxazol-4-yl)-3-diphenylphosphoryl-pyrrolo[2,3-b]pyridin-1-yl]benzoic acid] | < 1 | < 1
Cc1ccc(-c2cn([C@@H](C)c3ccccn3)c3cc(-c4c(C)noc4C)cnc23)cc1C(=O)O [P-0999, 5-[6-(3,5-dimethylisoxazol-4-yl)-1-[(1S)-1-(2-pyridyl)ethyl]pyrrolo[3,2-b]pyridin-3-yl]-2-methyl-benzoic acid] | < 1 | < 1
Cc1noc(C)c1-c1cnc2c(-c3ccc(C(=O)O)cc3)cn([C@@H](c3ccccn3)C3CC3)c2c1 [P-0987, 4-[1-[(R)-cyclopropyl(2-pyridyl)methyl]-6-(3,5-dimethylisoxazol-4-yl)pyrrolo[3,2-b]pyridin-3-yl]benzoic acid] | < 1 | < 1
Cc1noc(C)c1-c1cnc2c(-c3ccc(C(=O)O)cc3)cn(CC3(C)CCCCC3)c2c1 [P-0912, 4-[6-(3,5-dimethylisoxazol-4-yl)-1-[(1-methylcyclohexyl)methyl]pyrrolo [3,2-b]pyridin-3-yl]benzoic acid] | < 1 | < 1
CC[C@@H](c1ccccn1)n1cc(-c2ccc(C)c(C(=O)O)c2)c2ncc(-c3c(C)noc3C)cc21 [P-1024, 5-[6-(3,5-dimethylisoxazol-4-yl)-1-[(1S)-1-(2-pyridyl)propyl]pyrrolo[3,2-b]pyridin-3-yl]-2-methyl-benzoic acid] | < 1 | < 1
COc1cc(-c2cn(Cc3ccccn3)c3cc(-c4c(C)noc4C)cnc23)ccc1C(=O)O [P-0953, 4-[6-(3,5-dimethylisoxazol-4-yl)-1-(2-pyridylmethyl)pyrrolo[3,2-b]pyridin-3-yl]-2-methoxy-benzoic acid] | < 1 | < 1
Cc1cccc(Cn2cc(I)c3ncc(-c4c(C)noc4C)cc32)n1 [P-0920, 4-[3-iodo-1-[(6-methyl-2-pyridyl)methyl]pyrrolo[3,2-b]pyridin-6-yl]-3,5-dimethyl-isoxazole] | < 1 | < 1
CC[C@H](c1ccccn1)n1cc(-c2ccc(CC(=O)OC)cc2)c2ncc(-c3c(C)noc3C)cc21 [P-0961, methyl 2-[4-[6-(3,5-dimethylisoxazol-4-yl)-1-[(1R)-1-(2-pyridyl)propyl]pyrrolo[3,2-b]pyridin-3-yl]phenyl]acetate] | < 1 | < 1
Cc1noc(C)c1-c1cnc2c(-c3ccc(C(=O)O)cc3)cn([C@H](c3ccccn3)C3CC3)c2c1 [P-0990, 4-[1-[(S)-cyclopropyl(2-pyridyl)methyl]-6-(3,5-dimethylisoxazol-4-yl)pyrrolo[3,2-b]pyridin-3-yl]benzoic acid] | < 1 | < 1
CC[C@@H](c1ccccn1)n1cc(-c2ccc(C(=O)OC)cc2)c2ncc(-c3c(C)noc3C)cc21 [P-0966, methyl 4-[6-(3,5-dimethylisoxazol-4-yl)-1-[(1S)-1-(2-pyridyl)propyl]pyrrolo[3,2-b]pyridin-3-yl]benzoate] | < 1 | < 1
CC[C@H](c1ccccn1)n1cc(-c2ccc(CC(=O)O)cc2)c2ncc(-c3c(C)noc3C)cc21 [P-0962, 2-[4-[6-(3,5-dimethylisoxazol-4-yl)-1-[(1R)-1-(2-pyridyl)propyl]pyrrolo[3,2-b]pyridin-3-yl]phenyl]acetic acid] | < 1 | < 1
[2H]C([2H])([2H])c1noc(C([2H])([2H])[2H])c1-c1cnc2c(-c3ccc(C(=O)O)cc3)cn(CC3CCC(F)(F)CC3)c2c1 [P-0908, 4-[6-[3,5-bis(trideuteriomethyl)isoxazol-4-yl]-1-[(4,4-difluorocyclohexyl)methyl]pyrrolo [3,2-b]pyridin-3-yl]benzoic acid] | < 1 | < 1
CC[C@@H](c1ccccn1)n1cc(-c2ccc(C(=O)O)cc2F)c2ncc(-c3c(C)noc3C)cc21 [P-1025, 4-[6-(3,5-dimethylisoxazol-4-yl)-1-[(1S)-1-(2-pyridyl)propyl]pyrrolo[3,2-b]pyridin-3-yl]-3-fluoro-benzoic acid] | < 1 | < 1
COc1cccc(Cn2cc(-c3ccc(C(=O)O)cc3)c3ncc(-c4c(C)noc4C)cc32)n1 [P-0931, 4-[6-(3,5-dimethylisoxazol-4-yl)-1-[(6-methoxy-2-pyridyl)methyl]pyrrolo[3,2-b]pyridin-3-yl]benzoic acid] | < 1 | < 1
Cc1noc(C)c1-c1cnc2c(-c3cnn(C)c3)cn(CC3(C)CCOCC3)c2c1 [P-0945, 3,5-dimethyl-4-[3-(1-methylpyrazol-4-yl)-1-[(4-methyltetrahydropyran-4-yl)methyl]pyrrolo[3,2-b]pyridin-6-yl]isoxazole] | < 1 | < 1
Cc1noc(C)c1-c1cnc2c(-c3ccc(C4(N)CC4)cc3)cn(CC3CCC(F)(F)CC3)c2c1 [P-0911, 1-[4-[1-[(4,4-difluorocyclohexyl)methyl]-6-(3,5-dimethylisoxazol-4-yl)pyrrolo[3,2-b]pyridin-3-yl]phenyl]cyclopropanamine] | < 1 | < 1
Cc1cccc(Cn2cc(-c3ccc(C(=O)O)cc3)c3ncc(-c4c(C)noc4C)cc32)n1 [P-0916, 4-[6-(3,5-dimethylisoxazol-4-yl)-1-[(6-methyl-2-pyridyl)methyl]pyrrolo[3,2-b]pyridin-3-yl]benzoic acid] | < 1 | < 1

Reference: US10519177B2, “Heterocyclic compounds and uses thereof” (Plexxikon Inc., priority 2013, dated 2019)
